From patent US20210284621A1 (priority 2018, published 2021)
Where two headings read alike, the source gives them in different places.

Experiments:
CB2 receptor [1] = molecular target: T1, CB2 receptor (Homo sapiens, UniProt P34972); experiment: cell-based; design: host or cells: cAMP Hunter cell lines; conditions: PathHunter agonist mode; read-out: CB2 Activity (β-Arrestin)
Method: (§1) The PathHunter® β-Arrestin assay monitors the activation of a GPCR in a homogenous, non-imaging assay format using a technology developed by DiscoverX called Enzyme Fragment Complementation (EFC) with β-galactosidase (3-Gal) as the functional reporter. […] EA is fused to β-Arrestin and PK is fused to the GPCR of interest.
(§2) PathHunter cell lines were expanded from freezer stocks according to standard procedures. Cells were seeded in a total volume of 20 μL into white walled, 384-well microplates and incubated at 37° C. for the appropriate time prior to testing. For agonist activity determination, cells were incubated with sample to induce response. Intermediate dilution of sample stocks was performed to generate 5× sample in assay buffer. 5 μL of 5× sample was added to cells and incubated at 37° C. or room temperature for 90 to 180 minutes. Vehicle concentration was 1%. Assay signal was generated through a single addition of 12.5 or 15 μL (50% v/v) of PathHunter Detection reagent cocktail, followed by a one hour incubation at room temperature. Microplates were read following signal generation with a PerkinElmer Envision™ instrument for chemiluminescent signal detection. Compound activity was analyzed using CBIS data analysis suite (ChemInnovation, CA). For agonist assays, percentage activity was calculated using the following formula: % Activity=100%×(mean RLU of test sample− mean RLU of vehicle control)/(mean MAX control ligand− mean RLU of vehicle control).

CB1 receptor [2] = molecular target: T2, CB1 receptor (Homo sapiens, UniProt P21554); experiment: CB1 competitive radioligand binding assay ([3H] SR141716A); design: expressed in transfected cells; host or cells: Chem-1 cells
Method: (§3) J Med Chem. 41(26): 5177-5187 (1998); and Munro S., et al. Molecular characterization of a peripheral receptor for cannabinoids. Nature 365:61-65 (1993).
CB1 Radioligand Binding Assay: A compound of the invention (0.5 μM in 1% DMSO) was incubated with Chem-1 cells expressing human recombinant CB1 receptor in buffer (50 mM HEPES, pH 7.4, 5 mM MgCl2, 1 mM CaCl2, 0.2% BSA) for 90 minutes at 37° C. in the presence of 2.0 nM [H^3] SR141716A (CB1 radioligand). % Inhibition was determined as a function of radioligand binding to the CB1 receptor.

CB1 receptor [3] = molecular target: T2, CB1 receptor; experiment: cell-based; design: host or cells: PathHunter cell lines
Method: as §1, §2

CB2 receptor [4] = molecular target: T1, CB2 receptor; experiment: CB2 competitive radioligand binding assay ([3H] WIN-55,212-2); design: expressed in transfected cells; host or cells: CHO-K1 cells
Method: as §3
CB2 Radioligand Binding Assay: A compound of the invention (0.05 μM in 1% DMSO) was incubated with CHO-K1 cells expressing human recombinant CB2 receptor in buffer (20 mM HEPES, pH 7.0, 0.5% BSA) for 90 minutes at 37° C. in the presence of 2.4 nM [H^3] WIN-55,212-2 (CB2 radioligand). % Inhibition was determined as a function of radioligand binding to the […].

CB1 receptor [5] = molecular target: T2, CB1 receptor; experiment: cAMP Assay #2: Hit Hunter cAMP assay, Gi-coupled agonist activity, CB1; type: cell-based; design: host or cells: PathHunter cell lines
Method: (§4) Compounds of the invention were assayed in the Hit Hunter® cAMP assay to determine Gi-coupled agonist activity on the CB1 and CB2 receptors, the results of which are provided in Table 5.
(§5) The Hit Hunter® cAMP assay monitors the activation of a GPCR via Gi and […] secondary messenger signaling in a homogenous, non-imaging assay format using a technology developed by DiscoverX called Enzyme Fragment Complementation (EFC) with β-galactosidase (β-Gal) as the functional reporter. […] ED is fused to cAMP and in the assay competes with cAMP generated by cells for binding to a cAMP-specific antibody. Active β-Gal is formed by complementation of exogenous EA to any unbound ED cAMP. Active enzymes can then convert a chemiluminescent substrate, generating an output signal detectable on a standard microplate reader.
(§6) cAMP Hunter cell lines were expanded from freezer stocks according to standard procedures. Cells were seeded in a total volume of 20 μL into white walled, 384-well microplates and incubated at 37° C. for the appropriate time prior to testing. cAMP modulation was determined using the DiscoverX Hit Hunter cAMP XS+ assay. For Gi agonist activity determination, cells were incubated with sample in the presence of EC80 forskolin to induce response (20 μM and 25 μM in the CB1 and CB2 assays, respectively). Media was aspirated from cells and replaced with 15 μL 2:1 HBSS/10 mM HEPES:cAMP XS+Ab reagent.
(§7) Intermediate dilution of sample stocks was performed to generate 4× sample in assay buffer. 5 μL of 4× compound was added to cells and incubated at 37° C. or room temperature for 30 or 60 minutes. Final vehicle concentration was 1%. Assay signal was generated through incubation with 20 μL cAMP XS+ED/CL lysis cocktail for one hour at room temperature. Microplates were read following signal generation with a PerkinElmer Envision™ instrument for chemiluminescent signal detection. Compound activity was analyzed using CBIS data analysis suite (Chem Innovation, CA). For agonist assays, percentage activity was calculated using the following formula: % Activity=100%×(1−(mean RLU of test sample−mean RLU of Max control ligand)/(mean RLU of vehicle control−mean RLU of Max control ligand). Control ligand was the non-selective CB1/CB2 agonist CP55,940.

CB2 receptor [6] = molecular target: T1, CB2 receptor; experiment: cAMP Assay #2: Hit Hunter cAMP assay, Gi-coupled agonist activity, CB2; type: cell-based; design: host or cells: cAMP Hunter cell lines; conditions: for CB2 fold selectivity: CB1 EC50 / CB2 EC50
Method: as §4, §5, §6, §7

[7] = PathHunter agonist mode, read-out: CB1 Activity (β-Arrestin)
[8] = Hit Hunter cAMP, 20 μM forskolin, control ligand CP55,940, read-out: CB1, EC50
[9] = Hit Hunter cAMP, 25 μM forskolin, control ligand CP55,940, read-out: CB2, EC50

T2 sequence (P21554 whole entry): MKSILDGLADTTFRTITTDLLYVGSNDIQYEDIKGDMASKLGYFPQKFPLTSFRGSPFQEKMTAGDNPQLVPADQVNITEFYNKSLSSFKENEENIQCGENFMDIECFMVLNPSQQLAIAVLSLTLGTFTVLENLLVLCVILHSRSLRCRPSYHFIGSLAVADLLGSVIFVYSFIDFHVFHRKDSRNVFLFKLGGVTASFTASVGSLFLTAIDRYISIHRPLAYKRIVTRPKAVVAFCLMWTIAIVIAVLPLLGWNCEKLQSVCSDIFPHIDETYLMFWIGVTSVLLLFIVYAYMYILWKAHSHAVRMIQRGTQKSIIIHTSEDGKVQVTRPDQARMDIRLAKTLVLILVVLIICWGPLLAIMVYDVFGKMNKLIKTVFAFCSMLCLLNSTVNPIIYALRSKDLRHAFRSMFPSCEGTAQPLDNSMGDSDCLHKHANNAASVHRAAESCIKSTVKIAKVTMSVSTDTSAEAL
T1 sequence (P34972 whole entry, the tested form may be a part): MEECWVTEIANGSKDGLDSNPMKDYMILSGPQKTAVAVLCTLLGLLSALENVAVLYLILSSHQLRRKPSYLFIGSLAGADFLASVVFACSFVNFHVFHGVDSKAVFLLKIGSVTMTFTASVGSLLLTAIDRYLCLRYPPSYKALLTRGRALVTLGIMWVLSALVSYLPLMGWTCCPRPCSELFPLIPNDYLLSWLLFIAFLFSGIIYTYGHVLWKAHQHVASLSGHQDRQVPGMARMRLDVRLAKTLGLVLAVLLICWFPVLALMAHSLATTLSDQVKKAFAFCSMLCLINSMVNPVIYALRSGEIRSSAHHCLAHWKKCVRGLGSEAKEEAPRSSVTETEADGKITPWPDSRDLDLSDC

| SMILES | EC50 (CB2 receptor [1]) [µM] | inhibition at 0.5 µM (CB1 receptor [2]; 0.5 μM compound, 2.0 nM [3H] SR141716A, 90 min 37° C.) [%] | Ki (CB1 receptor [2]; Table 2, read-out: CB1 Binding Ki) [µM] | EC50 (CB1 receptor [3]; [7]) [µM] | inhibition at 0.05 µM (CB2 receptor [4]; 0.05 μM compound, 2.4 nM [3H] WIN-55,212-2, 90 min 37° C.) [%] | Fold Selectivity (CB1/CB2) (CB2 receptor [4]; Table 2, ratio of Ki CB1/CB2) | Ki (CB2 receptor [4]; Table 2, read-out: CB2 Binding Ki) [µM] | EC50 (CB1 receptor [5]; [8]) [µM] | EC50 (CB2 receptor [6]; [9]) [µM] | CB2 fold selectivity (CB2 receptor [6]; Hit Hunter cAMP) | Ki (CB1 receptor [2]; Table 3, read-out: Ki CB1) [µM] | Fold Selectivity (CB1/CB2) (CB2 receptor [4]; Table 3, ratio of Ki CB1/CB2) | Ki (CB2 receptor [4]; Table 3, read-out: Ki CB2) [µM] | Ki (CB1 receptor [2]) [µM] | EC50 (CB1 receptor [3]) [µM] | Ki (CB2 receptor [4]) [µM] | EC50 (CB1 receptor [5]) [µM] | EC50 (CB2 receptor [6]) [µM] |
| --- | --- | --- | --- | --- | --- | --- | --- | --- | --- | --- | --- | --- | --- | --- | --- | --- | --- | --- |
| CCCCCCC(C)(C)c1cc(O)c2c(c1)OC(C)(C)[C@@H]1CC=C(C(=O)NC3CCCCC3)C[C@@H]21 [Compound 16, (6aR,10aR)—N-Cyclohexyl-1-hydroxy-6,6-dimethyl-3-(2-methyloctan-2-yl)-6a,7,10,10a-tetrahydro-6H-benzo[c]chromene-9-carboxamide] | 0.005 | 84 | 0.094 | > 3 | 57 | 4 | 0.026 | > 3 | 0.0027 | >1000 | – | – | – | – | – | – | – | – |
| CCCCCCC(C)(C)c1cc(O)c2c(c1)OC(C)(C)[C@@H]1CC=C(C(=O)NOCCO)C[C@@H]21 [Compound 41] | 0.0018 | – | – | 0.0378 | – | – | – | 0.0063 | 0.0015 | 4.3 | 0.0274 | 6.4 | 0.0043 | – | – | – | – | – |
| CCCCCCC(C)(C)c1cc(O)c2c(c1)OC(C)(C)[C@@H]1CC=C(C(=O)N[C@H]3C[C@H](O)C3)C[C@@H]21 [Compound 45, (6aR,10aR)-1-hydroxy-N-((1R,3R)-3-hydroxycyclobutyl)-6,6-dimethyl-3-(2-methyloctan-2-yl)-6a,7,10,10a-tetrahydro-6H-benzo[c]chromene-9-carboxamide] | 0.006 | – | – | – | – | – | – | – | – | 22.9 | – | 14.3 | – | 0.144 | 4.98 | 0.0101 | 0.274 | 0.012 |
| CCCCCCC(C)(C)c1cc(O)c2c(c1)OC(C)(C)[C@@H]1CC=C(C(=O)N[C@H]3C[C@@H](O)C3)C[C@@H]21 [Compound 46, (6aR,10aR)-1-hydroxy-N-((1 S,3S)-3-hydroxycyclobutyl)-6,6-dimethyl-3-(2-methyloctan-2-yl)-6a,7,10,10a-tetrahydro-6H-benzo[c]chromene-9-carboxamide] | 0.0036 | – | – | – | – | – | – | – | – | 31.4 | – | 3.9 | – | 0.0903 | 6 | 0.0229 | 0.263 | 0.0084 |
| CCCCCCC(C)(C)c1cc(O)c2c(c1)OC(C)(C)[C@@H]1CC=C(C(=O)NN3CCCCC3)C[C@@H]21 [Compound 48, (6aR,10aR)-1-hydroxy-6,6-dimethyl-3-(2-methyloctan-2-yl)-N-(piperidin-1-yl)-6a,7,10,10a-tetrahydro-6H-benzo[c]chromene-9-carboxamide] | 0.0044 | – | – | – | – | – | – | – | – | >428 | – | 25.3 | – | 0.233 | > 3 | 0.0092 | > 3 | 0.007 |
| CC(C)(CCCCCCO)c1cc(O)c2c(c1)OC(C)(C)[C@@H]1CC=C(C(=O)O)C[C@@H]21 [Compound 57, (6aR,10aR)-1-hydroxy-3-(8-hydroxy-2-methyloctan-2-yl)-6,6-dimethyl-6a,7,10,10a-tetrahydro-6H-benzo[c]chromene-9-carboxylic acid] | 0.022 | – | – | 0.29 | – | – | – | – | – | 2.3 | – | 2.9 | – | 0.162 | – | 0.0563 | 0.0921 | 0.0397 |
| CCCCCCC(C)(C)c1cc(O)c2c(c1)OC(C)(C)[C@@H]1CC=C(C(=O)NC(C)(C)C)C[C@@H]21 [Compound 95, (6aR,10aR)-N-(tert-butyl)-1-hydroxy-6,6-dimethyl-3-(2-methyloctan-2-yl)-6a,7,10,10a-tetrahydro-6H-benzo[c]chromene-9-carboxamide] | 0.0013 | – | – | – | – | – | – | – | – | 11.0 | – | 9.7 | – | 0.0311 | 0.0239 | 0.0032 | 0.0132 | 0.0012 |
| CCCCCCC(C)(C)c1cc(O)c2c(c1)OC(C)(C)[C@@H]1CC=C(C(=O)NO)C[C@@H]21 [Compound 105, (6aR,10aR)-N,1-dihydroxy-6,6-dimethyl-3-(2-methyloctan-2-yl)-6a,7,10,10a-tetrahydro-6H-benzo[c]chromene-9-carboxamide] | 0.0037 | – | – | – | – | – | – | – | – | 1.0 | – | 0.4 | – | 0.0092 | 0.0756 | 0.0241 | 0.0114 | 0.0112 |
| CCCCCCC(C)(C)c1cc(O)c2c(c1)OC(C)(C)[C@@H]1CC=C(C#N)C[C@@H]21 [Compound 112, (6aR,10aR)-1-hydroxy-6,6-dimethyl-3-(2-methyloctan-2-yl)-6a,7,10,10a-tetrahydro-6H-benzo[c]chromene-9-carbonitrile] | 0.0014 | – | – | 0.002 | – | – | – | – | – | – | – | 1.4 | – | 0.001 | – | 0.0007 | – | – |
